The test system of one data set is iPSC-derived BMECs. The experiment in a line: Test of compounds for the ability to mimic the activity of RA (elevated TEER). The following applies: for induction of elevated TEER: ability to mimic the activity of RA. It is filed as cell-based, human. From the text:
Further, Applicants tested a list of compounds for the ability to mimic the activity of RA.
A typical retinoic acid-enhanced blood brain barrier is created as described below and in the figures. Retinoic acid suitable for the present invention may be obtained from commercial sources such as Sigma-Aldrich. […] Both types of RA are suitable for the present invention.

Data set [1] concerns hCMEC/D3 immortalized human BMEC line. The following applies: cited from earlier work.
The nature of a further data set: in vitro. Conditions: human, permeability. The method, then:
(§1) To determine Pe values for radiolabeled compounds, each compound was diluted to 0.4 μCi in transport buffer (distilled water with 0.12 M NaCl, 25 mM NaHCO3, 3 mM KCl, 2 mM MgSO4, 2 mM CaCl2, 0.4 mM K2HPO4, 1 mM HEPES, and 0.1% bovine serum albumin [BSA; Sigma]). 200 μL aliquots were extracted from the basolateral chamber every 15 min and replaced by fresh transport buffer. […] [^3H]-vincristine was purchased from American Radiolabeled Chemicals (St. Louis, Mo., USA), while all other radiolabeled compounds were acquired from PerkinElmer (Waltham, Mass., USA). All compound incubations were conducted at 37° C. and carried out on a rotator. Triplicate filters were used for all permeability studies.

For another data set, the system named is IMR90-4-derived BMECs. The data set is described as follows: in vitro. Conditions: for permeability: human, 1 h. The procedure: as §1
Setting [2] is: RA treatment and optimized neural cell co-culture.

Read-outs that look alike come from different tables or passages of the source.

`CC1(C)CC=C(c2ccccc2)c2cc(/C=C/c3ccc(C(=O)O)cc3)ccc21` [BMS 453]: the “induction of elevated TEER” value with iPSC-derived BMECs is recorded as “not to induce elevated TEER”.

`O=Cc1c2[nH]c3ccccc3c2cc2[nH]c3ccccc3c12` [6-formylindolo[3,2-B]carbazole]: in the data set on iPSC-derived BMECs, the “induction of elevated TEER” value is given as “not to induce elevated TEER”.

The Papp A→B is the apparent permeability from the apical to the basolateral side of a cell layer. A higher Papp A→B goes with ready permeation. Take `CC[C@]1(O)C[C@H]2CN(CCc3c([nH]c4ccccc34)[C@@](C(=O)OC)(c3cc4c(cc3OC)N(C=O)[C@H]3[C@@](O)(C(=O)OC)[C@H](OC(C)=O)[C@]5(CC)C=CCN6CC[C@]43[C@@H]65)C2)C1` [Vincristine, vincristine]: the permeability result in data set [1] is “approximately 0.75×10^−3 cm/min”; with IMR90-4-derived BMECs, 3.5±0.9×10^−5 cm/min. The molecule further gave a Papp A→B at 1 h in the data set “in vitro” of 0.433 ×10⁻⁶ cm/s.

In the case of `O=C(O)CCc1cc(I)c(O)c(I)c1` [3,5-diiodo-4-hydroxyphenylpropionic acid], the “induction of elevated TEER” value with iPSC-derived BMECs is listed as “not to induce elevated TEER”.

With `CC/C=C\C/C=C\C/C=C\C/C=C\C/C=C\C/C=C\CCC(=O)O` [docosa-4Z,7Z,10Z,13Z,16Z,19Z-hexaenoic acid], the “induction of elevated TEER” value in the data set on iPSC-derived BMECs is “not to induce elevated TEER”.

Regarding `CCCCCC#CCC#CCC#CCC#CCCCC(=O)O` [5,8,11,14-eicosatetraynoic acid], the “induction of elevated TEER” value in the data set on iPSC-derived BMECs is “not to induce elevated TEER”.

Molecule `COc1cc2nc(N3CCN(C(=O)c4ccco4)CC3)nc(N)c2cc1OC` [Prazosin, prazosin] gave an apical-to-basolateral permeability (Papp A→B) at 1 h in the data set “in vitro” of 1.83 ×10⁻⁶ cm/s. The “Average Pe” value in the data set with IMR90-4-derived BMECs (setting [2]) is 0.11 ± 0.006 10^−3 cm/min; in the data set on IMR90-4-derived BMECs (RA treatment only), 0.2 ± 0.05 10^−3 cm/min. Further, the permeability in the data set on IMR90-4-derived BMECs is given as 2±0.5×10^−4 cm/min.

In the case of `Cc1cccc(Nc2cc(Cl)nc(SCC(=O)O)n2)c1C` [WY-14643], in the data set on iPSC-derived BMECs, the “induction of elevated TEER” value was “not to induce elevated TEER”.

Consider `COc1cc2c(c(OC)c1OC)-c1ccc(OC)c(=O)cc1[C@@H](NC(C)=O)CC2` [Colchicine, colchicine], for which the permeability result in data set [1] (hCMEC/D3, colchicine and vincristine estimated from graphical data) was “approximately 1.6×10^−3 cm/min”. Further, the Papp A→B at 1 h in the data set “in vitro” (RA-treated cells without co-culture) was 0.383 ×10⁻⁶ cm/s; in “in vitro” (optimized co-culture conditions (pericyte/hNPC), RA-treated), 0.25 ×10⁻⁶ cm/s. The “Average Pe” value is 0.015 ± 0.007 10^−3 cm/min with IMR90-4-derived BMECs (setting [2]) and 0.023 ± 0.0096 10^−3 cm/min in the data set on IMR90-4-derived BMECs (RA treatment only).

As for `CC1(C)C(=O)C(C)(C)c2cc(C(=O)Nc3ccc(C(=O)O)cc3)ccc21` [BMS 753], in the data set on iPSC-derived BMECs, the “induction of elevated TEER” value is “induce elevated TEER”.

For the molecule `N[C@@H](Cc1cc(I)c(Oc2ccc(O)cc2)c(I)c1)C(=O)O` [3,5-diiodo-L-thyronine], the “induction of elevated TEER” value in the data set with iPSC-derived BMECs is given as “not to induce elevated TEER”.

For `CC1=C(/C=C/C(C)=C\C=C\C(C)=C\C(=O)O)C(C)(C)CCC1` [9-cis RA], the “enhancement by RA isoform” value in the data set with iPSC-derived BMECs (two isoforms of RA tested) is recorded as “producing the desired enhancement”.

As to CD 3254, in the data set with iPSC-derived BMECs, the “induction of elevated TEER” value is “induce elevated TEER”.

For `C[C@H](CCC(=O)O)[C@H]1CC[C@H]2[C@@H]3[C@H](O)C[C@@H]4C[C@H](O)CC[C@]4(C)[C@H]3C[C@H](O)[C@]12C` [cholic acid], in the data set with iPSC-derived BMECs, the “induction of elevated TEER” value is “not to induce elevated TEER”.

Turning to `CC(=O)[C@H]1[C@H](C#N)C[C@H]2[C@@H]3CC=C4C[C@@H](O)CC[C@]4(C)[C@H]3CC[C@@]21C` [pregnenolone-16α-carbonitrile], in the data set with iPSC-derived BMECs, the “induction of elevated TEER” value is reported as “not to induce elevated TEER”.

On to `Clc1ccc(-c2nc3sccn3c2/C=N/OCc2ccc(Cl)c(Cl)c2)cc1` [CITCO], for which, in the data set on iPSC-derived BMECs, the “induction of elevated TEER” value is on record as “not to induce elevated TEER”.

Consider `C=C1CC[C@H](O)C/C1=C/C=C1\CCC[C@]2(C)[C@@H]([C@H](C)CCCC(C)(C)O)CC[C@@H]12` [25-hydroxyvitamin D3], for which the “induction of elevated TEER” value with iPSC-derived BMECs is given as “not to induce elevated TEER”.

Take `CCCCC[C@H](O)/C=C/[C@@H]1[C@H]2C/C(=C/CCCC(=O)O)C[C@H]2C[C@H]1O` [carbacyclin]: in the data set on iPSC-derived BMECs, the “induction of elevated TEER” value is given as “induce elevated TEER”.

These data come from US10590393B2, “Retinoic acid enhanced human stem cell derived blood brain barrier model” (Wisconsin Alumni Research Foundation, priority 2012, dated 2020).
